Experimental data taken from ChEMBL document CHEMBL1144490, “Apoptosis induction and modulation of P-glycoprotein mediated multidrug resistance by new macrocyclic lathyrane-type diterpenoids” (Bioorg Med Chem, 2007).
Converted amounts (≈) assume the structure as drawn.

Key:
[1] = system: L5178Y; assay: Induction of apoptosis in human MDR1 gene transfected mouse L5178 Y cells assessed as necrosis at 5 ug/mL after 40 mins; assay type: functional
[2] = system: L5178Y; assay: Induction of apoptosis in human MDR1 gene transfected mouse L5178 Y cells assessed as necrosis at 50 ug/mL after 40 mins; assay type: functional
[3] = system: L5178Y; assay: Induction of apoptosis in human MDR1 gene transfected mouse L5178 Y cells assessed as total apoptosis at 5 ug/mL after 40 mins; assay type: functional
[4] = system: L5178Y; assay: Induction of apoptosis in human MDR1 gene transfected mouse L5178 Y cells assessed as total apoptosis at 50 ug/mL after 40 mins; assay type: functional
[5] = system: L5178Y; assay: Induction of apoptosis in human MDR1 gene transfected mouse L5178 Y cells assessed as early apoptosis at 5 ug/mL after 40 mins; assay type: functional
[6] = system: L5178Y; assay: Induction of apoptosis in human MDR1 gene transfected mouse L5178 Y cells assessed as early apoptosis at 50 ug/mL after 40 mins; assay type: functional
[7] = Antiproliferative activity against human MDR1 gene transfected mouse L5178 Y cells after 72 hrs; assay type: functional; details: L5178Y, read-out: ID50 (the source's name)
[8] = system: L5178Y; assay: Induction of apoptosis in human MDR1 gene transfected mouse L5178 Y cells assessed as early apoptosis at 7 ug/mL after 40 mins; assay type: functional
[9] = system: L5178Y; assay: Induction of apoptosis in human MDR1 gene transfected mouse L5178 Y cells assessed as necrosis at 7 ug/mL after 40 mins; assay type: functional
[10] = system: L5178Y; assay: Induction of apoptosis in human MDR1 gene transfected mouse L5178 Y cells assessed as necrosis at 75 ug/mL after 40 mins; assay type: functional
[11] = system: L5178Y; assay: Induction of apoptosis in human MDR1 gene transfected mouse L5178 Y cells assessed as early apoptosis at 75 ug/mL after 40 mins; assay type: functional
[12] = system: L5178Y; assay: Induction of apoptosis in human MDR1 gene transfected mouse L5178 Y cells assessed as total apoptosis at 7 ug/mL after 40 mins; assay type: functional
[13] = system: L5178Y; assay: Induction of apoptosis in human MDR1 gene transfected mouse L5178 Y cells assessed as total apoptosis at 75 ug/mL after 40 mins; assay type: functional
[14] = biological target: T1, ATP-dependent translocase ABCB1 (Homo sapiens, UniProt P08183); assay: Inhibition of P-gp mediated efflux-pump activity in human MDR1 gene transfected mouse L5178 Y cells at 4 ug/mL by rhodamine 123 accumulation test; assay type: cell-based
[15] = biological target: T1, ATP-dependent translocase ABCB1; assay: Inhibition of P-gp mediated efflux-pump activity in human MDR1 gene transfected mouse L5178 Y cells at 40 ug/mL by rhodamine 123 accumulation test; assay type: cell-based

T1 sequence (P08183 whole entry): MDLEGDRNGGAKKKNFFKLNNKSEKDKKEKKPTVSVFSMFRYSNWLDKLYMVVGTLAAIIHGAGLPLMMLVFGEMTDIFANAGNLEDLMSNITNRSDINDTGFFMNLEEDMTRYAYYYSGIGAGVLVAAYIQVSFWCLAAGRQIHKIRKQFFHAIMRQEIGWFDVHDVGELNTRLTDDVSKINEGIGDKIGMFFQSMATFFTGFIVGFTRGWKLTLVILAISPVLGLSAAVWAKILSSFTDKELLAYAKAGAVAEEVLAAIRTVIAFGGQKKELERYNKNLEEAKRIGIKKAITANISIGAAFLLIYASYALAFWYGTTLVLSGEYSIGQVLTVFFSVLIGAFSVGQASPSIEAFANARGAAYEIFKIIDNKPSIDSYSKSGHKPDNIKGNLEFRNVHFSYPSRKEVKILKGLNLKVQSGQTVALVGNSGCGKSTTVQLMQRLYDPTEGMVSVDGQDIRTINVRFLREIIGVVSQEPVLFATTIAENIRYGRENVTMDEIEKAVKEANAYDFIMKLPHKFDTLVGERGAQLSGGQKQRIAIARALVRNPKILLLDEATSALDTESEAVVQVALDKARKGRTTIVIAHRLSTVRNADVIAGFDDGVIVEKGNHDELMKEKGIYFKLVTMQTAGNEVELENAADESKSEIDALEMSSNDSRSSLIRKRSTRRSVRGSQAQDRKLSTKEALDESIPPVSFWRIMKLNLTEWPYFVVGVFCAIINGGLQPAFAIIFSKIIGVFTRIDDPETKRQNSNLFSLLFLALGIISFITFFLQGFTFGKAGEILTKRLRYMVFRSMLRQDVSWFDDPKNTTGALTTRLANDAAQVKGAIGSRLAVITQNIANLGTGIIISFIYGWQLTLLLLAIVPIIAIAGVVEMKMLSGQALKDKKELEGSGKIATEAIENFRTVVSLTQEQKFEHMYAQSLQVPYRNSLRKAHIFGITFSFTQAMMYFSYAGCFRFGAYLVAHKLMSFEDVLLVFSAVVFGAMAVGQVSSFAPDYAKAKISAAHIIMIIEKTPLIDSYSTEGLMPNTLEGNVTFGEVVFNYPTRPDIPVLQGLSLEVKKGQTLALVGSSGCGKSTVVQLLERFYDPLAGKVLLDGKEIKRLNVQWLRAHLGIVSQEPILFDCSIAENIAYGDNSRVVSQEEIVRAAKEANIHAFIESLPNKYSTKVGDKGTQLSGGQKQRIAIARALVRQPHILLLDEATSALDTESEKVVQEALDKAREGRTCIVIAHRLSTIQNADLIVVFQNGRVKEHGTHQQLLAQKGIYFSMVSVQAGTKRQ

Fluorescence intensity [14]	Fluorescence intensity [15]	SMILES	Activity [8] [%]	Activity [9] [%]	Activity [10] [%]	Activity [11] [%]	Activity [12] [%]	Activity [13] [%]	further results
		c1ccc2c(c1)Nc1c(ccc3ccccc13)S2							Activity [1]: 16.3%; Activity [2]: 1.81%; Activity [3]: 65.01%; Activity [4]: 98%; Activity [5]: 1.72%; Activity [6]: 0.02%
		COc1cccc2c1C(=O)c1c(O)c3c(c(O)c1C2=O)C[C@@](O)(C(=O)CO)C[C@@H]3O[C@H]1C[C@H](N)[C@H](O)[C@H](C)O1 [DOXORUBICIN]							IC50 [7]: 0.35 µg/mL (≈ 0.644 µM)
		CC(=O)OC[C@H]1C[C@H](OC(=O)/C=C/c2ccccc2)C(=O)/C(C)=C/[C@@H]2[C@H](CC[C@@]3(C)O[C@@H]3C[C@H]1O)C2(C)C [LATILAGASCENES A]	7.79	0.85	2.16	33.88	22.7	55.24	
		C/C1=C\[C@@H]2[C@H](CC[C@@]3(C)O[C@@H]3C[C@@H](O)[C@@H](CO)C[C@H](OC(=O)/C=C/c3ccccc3)C1=O)C2(C)C [LATILAGASCENES B]	5.87	0.79	1.82	1.38	18.96	96.31	IC50 [7]: 4.58 µg/mL (≈ 9.49 µM)
		CC(=O)OC[C@H]1C[C@H](OC(=O)/C=C/c2ccccc2)C(=O)/C(C)=C/[C@@H]2[C@H](CC[C@@]3(C)O[C@@H]3C[C@H]1OC(C)=O)C2(C)C [LATILAGASCENES C]	7.8	0.69	3.93	1.04	21.9	41.31	
685.9	714	C/C1=C\[C@@H]2[C@H](CC[C@@]3(C)O[C@@H]3C[C@@H](O)[C@@H](COC(=O)c3ccccc3)C[C@H](OC(=O)/C=C/c3ccccc3)C1=O)C2(C)C [LATILAGASCENES D]	12.7	1.54	6.83	2.96	34.7	67.97	
882.2	810.8	CC1(C)[C@@H]2/C=C(\CO)C(=O)[C@@H](OC(=O)/C=C/c3ccccc3)C[C@H](COC(=O)c3ccccc3)[C@H](O)C[C@H]3O[C@]3(C)CC[C@@H]21 [LATILAGASCENES E]							
212.6	1029.4	C/C1=C\[C@@H]2[C@H](CC[C@@]3(C)O[C@@H]3C[C@@H](O)[C@@H](C)CC(OC(=O)c3ccccc3)C1=O)C2(C)C (stereo partly specified) [LATILAGASCENES F]							

SMILES	Fluorescence intensity [14]	Fluorescence intensity [15]	Activity [8] [%]	Activity [9] [%]	Activity [10] [%]	Activity [11] [%]	Activity [12] [%]	Activity [13] [%]	further results
C/C1=C\[C@@H]2[C@H](CC[C@@]3(C)O[C@@H]3[C@H]3[C@@H](O)[C@@H](C)C[C@]3(OC(=O)/C=C/c3ccccc3)C1=O)C2(C)C [JOLKINOL B]	449.2	649.3	6.91	1.16	0.41	4.06	27	38.83	
